Patent US6013795A, “Alpha-branched fluoroalkylcarbonyl fluorides and their derivatives” (3M Innovative Properties Company, priority 1996, dated 2000)
“Also recorded” adds a separate entry of the source.

Key:
[1] = thermal degradation of neat perfluorocarboxylate salts by thermogravimetric analysis; type: physicochemical; settings: TGA 10° C./min, nitrogen
From the text: Thermal degradation measurements were made on a series of neat perfluorocarboxylate salts, including several α-branched open chain structures (Examples N2-N9), a primarily linear open chain structure (Example N10--Fluorad™ FC-143 Fluorochemical Surfactant, commercially available from 3M Company, St. Paul, Minn.), and a closed chain (i.e., cyclic) structure (Example N11- made by the electrochemical fluorination of benzoic acid and hydrolysis in the presence of KOH, as described in U.S. Pat. No. 2,567,011 (Diesslin et al.)).
The perfluorocarboxylate salts were tested using a Perkin-Elmer TGA 7 thermogravimetric analysis apparatus and a salt sample size of approximately 5 mg, a heating rate of 10° C./min, and a nitrogen gas flow rate of 40-45 mL/min. Using the TGA 7 software, the following temperatures were recorded: (1) the onset temperature of decomposition, (2) the temperature at which 50% of the sample weight was lost, and (3) the temperature at which 90% of the sample weight was lost.

[2] = surface tension of aqueous surfactant solutions and critical micelle concentration (K-12 Processor Tensiometer); type: physicochemical; settings: carboxylate salts, deionized water; Table 5
From the text: Critical Micelle Concentration (CMC): The critical micelle concentration is defined as the concentration at which further surface tension is no longer lowered with increasing levels of surfactant. […] Surface tension is then plotted vs. log concentration and the data points are connected. The resulting curve has a nearly horizontal flat portion at concentrations above the CMC and has a negative steep slope at concentrations below the CMC. The CMC is defined as the lowest surfactant concentration in the horizontal flat portion of the curve.
(§1) Then the critical micelle concentration (CMC) was determined for each surfactant.
as §1

rat = assay: exhaust gas monitoring of dosed rat in uptake desiccator chamber; type: in vivo; settings: 500 mg/kg
Procedure: Additional biological testing of C7 F15 CF(CF3)COO^- NH4^+ in rats was conducted using the following test apparatus. An uptake desiccator jar chamber was designed with top and bottom portions, the top portion equipped with an inlet port, an outlet port, oxygen monitor and pressure gage. An oxygen gas tank supplied oxygen into the inlet port, and the oxygen level in the chamber was maintained at a normal ambient level as measured by the oxygen monitor and pressure gage. The outlet port was connected in series with a carbon dioxide scrubber and particulate filter, which in turn was connected to a loop containing a stainless steel bellows pump operating at about 2 L/min. Most of the gas in the loop was recycled into the inlet port, but about 100 mL/min was directed through a secondary loop to a gas chromatograph equipped with a 0.5 mL gas sampling loop.
A rat dosed at 500 mg/kg was placed in the bottom portion of the chamber, the top portion was attached, and the assembled chamber was placed in an ice-filled pan to allow for the condensation of water. The oxygen flow was started, and the exhaust gases were monitored for the presence of CF3 CF=CF(C6 F13) and C7 F15 CFHCF3, aqueous degradation products of C7 F15 CF(CF3)COOH, using known standards of this olefin and hydride in the gas chromatograph. […] After 24 minutes, one slight chromatographic peak was noted, corresponding to the monohydride. After 92 minutes, the peak became noticeably larger and a second peak formed, corresponding to the olefin.

[3] = emulsion polymerization of vinylidene fluoride and hexafluoropropylene with surfactant as emulsifier
From the text: The following procedure was used to evaluate C7 F15 CF(CF3)COO^- NH4^+ (from Ex. M1) as an emulsifier to copolymerize hexafluoropropylene (HFP) and vinylidene fluoride.
A 1 gallon, vertically agitated stainless steel reactor with pressure and temperature controls was evacuated and twice purged with nitrogen. Using an isolated vacuum, a solution comprised of 2 g of ammonium persulfate (initiator) and 6 g of dipotassium phosphate dissolved in 2800 g of deionized water was introduced into the reactor. The remaining vacuum on the reactor was vented with nitrogen, and the solution was degassed twice under agitation using alternate vacuum and nitrogen purges. […] The reactor was vented with nitrogen, the solution was agitated very briefly, and the reactor was evacuated of nitrogen and isolated. Then the reactor was vented with hexafluoropropylene monomer to a pressure of approximately 10 psig (1280 torr total pressure), and the temperature of the batch was raised to 72° C. with high agitation. Maintaining the temperature at 72° C., a monomer mixture of 60% (wt) of vinylidene fluoride and 40% (wt) hexafluoropropylene was fed from a tared gas cylinder into the head space of the reactor to maintain a reactor pressure of 130 psig (7480 total pressure). After feeding in about 1 kg of monomer blend (approximately 3.75 hours duration), the introduction of monomer was ceased, the reaction was allowed to cool to room temperature, and any residual unreacted monomer was vented.
The resulting latex polymer was drained from the reactor, and percent solids of the latex was determined to be 25% by weight as measured by drying 10 g of latex in a forced air oven for 16 hours at 105° C.
The reactor body was separated from the reactor head, and a visual inspection of the reactor was made to determine the amount of coagulated polymer in the reactor (the amount should be minimal in a good polymerization reaction). A qualitative rating was assessed, ranging from "none" to "little" to "some."
The latex stability was determined by half filling a 16 oz (450 mL) jar with latex and shaking several hours in the horizontal position, quantitatively rating the latex after shaking using a 3-point scale ranging from 0=very stable to 3=unstable.
Particle size in the latex was determined using 90° scattering on a Coulter sub-micron particle size analyzer.
Degree of foaming was rated using the following qualitative scale: 0=not foamy, 1=slightly foamy, 2=moderately foamy, and 3=very foamy.
In Example P2, the same experiment was run as in Example P1, except that the concentration of C7 F15 CF(CF3)COO^- NH4^+emulsifier was raised to 3500 ppm, the reaction time decreased from 3.75 to 3.5 hours, and the reaction temperature increased from 72° C. to 78° C.
In Comparative Examples P3-P6, the same experiment was run as in Example P1, except that C8 F17 SO2 N(C2 H5)CH2 COO^- K^+ (Fluorad™ FC-128 Fluorochemical Surfactant, available from 3M Company, St. Paul, Minn.), C7 F15 COO^- H4 N^+ (Fluorad™ FC-143 Fluorochemical Surfactant), and Surflon™ S111S Fluorochemical Surfactant (believed to be nominally telomer-based n-C9 F19 COO^- H4 N^+, commercially available from Asahi Glass Corp., Japan) were substituted for C7 F15 CF(CF3)COO^- H4 N^+ emulsifier.
In Comparative Example P7, the same experiment was run as in Example P1, except that no emulsifier was used.

rats = assay: acute LD50, one-time feeding study of rats; type: in vivo, rat; settings: for toxicity rating: acute
Procedure: Acute LD50 measurements for a one-time feeding study of rats were determined over a 21 day period for both the α-branched perfluorocarboxylate salt, C7 F15 CF(CF3)COO^- NH4^+, and its straight chain isomer, CF3 (CF2)8 COO^- NH4^+.

[4] = Chem. Res. Toxicol. 1996, 9, 689-95; cited from earlier work
[5] = degradation of aqueous salt solution stored at room temperature; type: physicochemical; settings: same 1 year period
Procedure: The α-branched open chain ammonium salt compounds from Examples N3-N6 were dissolved in deionized water at a concentration of 5% by weight (0.5 g ammonium salt in 10 mL water) and were stored at room temperature.

[6] = hydrolytic stability of esters stirred with concentrated aqueous ammonium hydroxide; type: physicochemical; settings: 2 days or comparable conditions
From the text: The acrylate and methacrylate esters from Examples D1-D11 were fully recoverable with essentially no degradation after being stirred with concentrated aqueous ammonium hydroxide for a period of 2 days.

O=C(O)C(F)(C(F)(F)F)C(F)(F)C(F)(F)C(F)(F)C(F)(F)C(F)(F)F (stereo not shown) [Example M28, C5 F11 CF(CF3)COO^- Na^+]
Temperature for 50% loss ([1]; listed as N8): 250 °C

O=C(O)C(F)(C(F)(F)F)C(F)(F)C(F)(F)C(F)(F)C(F)(F)C(F)(F)C(F)(F)C(F)(F)F (stereo not shown) [Example M14, C7 F15 CF(CF3)COO^- H4 N^+]
CMC [2]: 2500 ppm | Surf. Tens. at the CMC [2]: 16.5 dynes/cm | post-exposure observation of toxicity (rat): no evidence of toxicity (death) or evidence of wasting syndrome | time to second peak (olefin) in exhaust gas; monohydride peak noticeably larger (rat): 92 min | time to slight peak of monohydride in exhaust gas (rat): 24 min | olefin and monohydride peaks in exhaust gas (rat; after 217 minutes): both peaks became significantly larger | olefin or hydride in exhaust gas (rat; initially): no olefin or hydride were detected | Latex Stability ([3]; 350 ppm emulsifier): 2 | Latex Stability ([3]; 3500 ppm emulsifier): 0 | toxicity rating (rats; listed as C7 F15 CF(CF3)COO^- NH4^+): relatively low toxicity; also recorded: only slightly toxic | time after which rats began regaining weight (rats; one-time feeding): 3 days | time of deaths from toxic doses (rats; one-time feeding): 2 to 3 days | wasting syndrome (rats; one-time feeding): No wasting syndrome was noted

O=C(O)C(F)(F)C(F)(F)C(F)(F)C(F)(F)C(F)(F)C(F)(F)C(F)(F)C(F)(F)C(F)(F)F [C9 F19 COO^- NH4^+, reference compound]
toxicity relative to the α-branched isomer (rats; LD50 based): ca. 10 times | toxicity rating (rats): moderately toxic | wasting syndrome (rats; one-time feeding): Wasting syndrome was observed | toxicity [4]: moderately toxic

O=C(O)C(F)(F)C(F)(F)C(F)(F)C(F)(F)C(F)(F)C(F)(F)C(F)(F)F [FC-143, C7 F15 COO^- H4 N^+]
CMC [2]: 8000 ppm | Surf. Tens. at the CMC [2]: 21.5 dynes/cm | degradation over 1 year (would show) [5]: no signs of degradation | Latex Stability ([3]; 350 ppm emulsifier): 2

CCN(CC(=O)O)S(=O)(=O)C(F)(F)C(F)(F)C(F)(F)C(F)(F)C(F)(F)C(F)(F)C(F)(F)C(F)(F)F [Fluorad ™ FC-128, C8 F17 SO2 N(C2 H5)CH2 COO^- K^+]
Latex Stability ([3]; 100 ppm emulsifier): 2 | Latex Stability ([3]; 350 ppm emulsifier): 0

O=C(O)C1(F)C(F)(F)C(F)(F)C(F)(F)C(F)(F)C1(F)F [U.S. Pat. No. 2,567,011]
Onset temperature of decomposition [1]: 100 °C | Temperature for 50% loss [1]: 110 °C | Temperature for 90% loss [1]: 120 °C

C=CC(=O)OCCOC(=O)C(F)(F)C(F)(F)C(F)(F)C(F)(F)C(F)(F)C(F)(F)C(F)(F)F [C7 F15 COOCH2 CH2 OCOCH=CH2]
hydrolytic stability [6]: readily hydrolyzed
